Assay results published in PubChem BioAssay AID330 (DTP/NCI, 2004).
Where “and” joins values, the source holds several entries; their conditions need not be identical. Equal entries are not always repeated. Inconclusive results and toxic doses are left out. How the source made its calls: active means survival T/C of 150% or more; inactive means T/C below 125% in these data.

Tested on: P388 leukemia ip, CD2F1 mice, survival T/C
Assay: NCI In Vivo Anticancer Drug Screen. Data for tumor model P388 Leukemia (intraperitoneal) in CD2F1 (CDF1) mice
Conditions: endpoint: median survival time, higher = longer survival
In short: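 Mice carrying the transplanted tumor received test compound or vehicle. Survival was recorded in each group, and the value is the treated-group measurement divided by that of the vehicle-treated control group.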

Measured: T/C

O=C(O)c1cc2c3ccccc3sc2c2ccccc12
inactive: dose: 30.0 mg/kg/injection, schedule: Q01DX005 (ip), vehicle: Klucel (hydroxypropylcellulose) (HPC) 93 % of control | dose: 60.0 mg/kg/injection, schedule: Q01DX005 (ip), vehicle: Klucel (hydroxypropylcellulose) (HPC) 93 % of control | dose: 120.0 mg/kg/injection, schedule: Q01DX005 (ip), vehicle: Klucel (hydroxypropylcellulose) (HPC) 90 % of control | dose: 240.0 mg/kg/injection, schedule: Q01DX005 (ip), vehicle: Klucel (hydroxypropylcellulose) (HPC) 90 % of control

O=S=C(c1ccccc1)N(Cc1ccccc1)Cc1ccccc1
inactive: dose: 25.0 mg/kg/injection, schedule: Q01DX009 (ip), vehicle: saline 96 % of control | dose: 50.0 mg/kg/injection, schedule: Q01DX009 (ip), vehicle: saline 97 % of control | dose: 100.0 mg/kg/injection, schedule: Q01DX009 (ip), vehicle: saline 97 % of control

C=C=CCN(C)Cc1ccccc1
inactive: dose: 25.0 mg/kg/injection, schedule: Q04DX002 (ip), vehicle: saline 106 % of control | dose: 50.0 mg/kg/injection, schedule: Q04DX002 (ip), vehicle: saline 93 % of control | dose: 100.0 mg/kg/injection, schedule: Q04DX002 (ip), vehicle: saline 100 % of control and 101 % of control

O=C1NC(=O)C2(CCC(O)C2)c2ccncc21 (configuration not stated)
inactive: dose: 0.12 mg/kg/injection, schedule: Q01DX009 (ip), vehicle: saline + Tween-80 + alcohol 103 % of control | dose: 0.25 mg/kg/injection, schedule: Q01DX009 (ip), vehicle: saline + Tween-80 + alcohol 100 % of control | dose: 0.5 mg/kg/injection, schedule: Q01DX009 (ip), vehicle: saline + Tween-80 + alcohol 103 % of control | dose: 1.0 mg/kg/injection, schedule: Q01DX009 (ip), vehicle: saline + Tween-80 + alcohol 100 % of control and 120 % of control | dose: 1.4 mg/kg/injection, schedule: Q01DX009 (ip), vehicle: saline + Tween-80 + alcohol 117 % of control

CCc1ccc(/C=C/c2ccc(O)c3ncccc23)[n+](C)c1
inactive: dose: 4.0 mg/kg/injection, schedule: Q04DX003 (ip), vehicle: saline 100 % of control | dose: 8.0 mg/kg/injection, schedule: Q04DX003 (ip), vehicle: saline 104 % of control | dose: 16.0 mg/kg/injection, schedule: Q04DX003 (ip), vehicle: saline 118 % of control

OCC(CO)(CO)NCCCNC(CO)(CO)CO
inactive: dose: 60.0 mg/kg/injection, schedule: Q01DX005 (ip), vehicle: saline 98 % of control | dose: 120.0 mg/kg/injection, schedule: Q01DX005 (ip), vehicle: saline 101 % of control | dose: 240.0 mg/kg/injection, schedule: Q01DX005 (ip), vehicle: saline 97 % of control

COC(=O)C1c2cc3c(c(O)c2CCC1(C)O)C(=O)c1c(O)cc2c(c1C3=O)OC1OC2(C)C(O)C(N(C)C)C1O (configuration not stated)
inactive: dose: 6.25 mg/kg/injection, schedule: Q01DX009 (ip), vehicle: saline 117 % of control | dose: 12.5 mg/kg/injection, schedule: Q01DX009 (ip), vehicle: saline 120 % of control | dose: 25.0 mg/kg/injection, schedule: Q04DX003 (ip), vehicle: saline 115 % of control | dose: 50.0 mg/kg/injection, schedule: Q04DX003 (ip), vehicle: saline 114 % of control | dose: 100.0 mg/kg/injection, schedule: Q04DX003 (ip), vehicle: saline 115 % of control

Nc1ncnc(N2C(=S)OC3C(O)C(CO)OC32)c1N (configuration not stated)
inactive: dose: 25.0 mg/kg/injection, schedule: Q04DX003 (ip), vehicle: water 100 % of control | dose: 50.0 mg/kg/injection, schedule: Q04DX003 (ip), vehicle: water 95 % of control | dose: 100.0 mg/kg/injection, schedule: Q04DX003 (ip), vehicle: water 95 % of control | dose: 200.0 mg/kg/injection, schedule: Q04DX003 (ip), vehicle: water 113 % of control | dose: 400.0 mg/kg/injection, schedule: Q04DX003 (ip), vehicle: water 95 % of control

COC1=CC(=O)C(=O)C=C1C(C)(C)C
inactive: dose: 2.8 mg/kg/injection, schedule: Q01DX005 (ip), vehicle: saline with Tween-80 107 % of control | dose: 5.6 mg/kg/injection, schedule: Q01DX005 (ip), vehicle: saline with Tween-80 100 % of control | dose: 11.25 mg/kg/injection, schedule: Q01DX005 (ip), vehicle: saline with Tween-80 107 % of control | dose: 22.5 mg/kg/injection, schedule: Q01DX005 (ip), vehicle: saline with Tween-80 98 % of control and 115 % of control | dose: 45.0 mg/kg/injection, schedule: Q01DX005 (ip), vehicle: saline with Tween-80 91 % of control and 96 % of control

COC(=O)c1ncn(C2CCCCC2)c1N
inactive: dose: 6.25 mg/kg/injection, schedule: Q01DX005 (ip), vehicle: saline with Tween-80 99 % of control | dose: 12.5 mg/kg/injection, schedule: Q01DX005 (ip), vehicle: saline with Tween-80 101 % of control

COc1c(Cc2ccccc2O)c(O)cc(O)c1C(=O)CCc1ccccc1
inactive: dose: 0.25 mg/kg/injection, schedule: Q01DX009 (ip), vehicle: Klucel (hydroxypropylcellulose) (HPC) 100 % of control | dose: 0.5 mg/kg/injection, schedule: Q01DX009 (ip), vehicle: Klucel (hydroxypropylcellulose) (HPC) 101 % of control | dose: 1.0 mg/kg/injection, schedule: Q01DX009 (ip), vehicle: Klucel (hydroxypropylcellulose) (HPC) 107 % of control | dose: 2.0 mg/kg/injection, schedule: Q01DX009 (ip), vehicle: Klucel (hydroxypropylcellulose) (HPC) 113 % of control | dose: 4.0 mg/kg/injection, schedule: Q01DX009 (ip), vehicle: Klucel (hydroxypropylcellulose) (HPC) 104 % of control | dose: 8.0 mg/kg/injection, schedule: Q01DX009 (ip), vehicle: Klucel (hydroxypropylcellulose) (HPC) 100 % of control | dose: 16.0 mg/kg/injection, schedule: Q01DX009 (ip), vehicle: Klucel (hydroxypropylcellulose) (HPC) 96 % of control | dose: 32.0 mg/kg/injection, schedule: Q01DX009 (ip), vehicle: Klucel (hydroxypropylcellulose) (HPC) 100 % of control

CCCCCC(CN(C)C)C(=O)/C=C/c1ccc(OC)cc1 (configuration not stated)
inactive: dose: 50.0 mg/kg/injection, schedule: Q01DX005 (ip), vehicle: saline 101 % of control | dose: 100.0 mg/kg/injection, schedule: Q01DX005 (ip), vehicle: saline 104 % of control | dose: 200.0 mg/kg/injection, schedule: Q01DX005 (ip), vehicle: saline 96 % of control

CN1C(=O)N(C)C(=O)C(Cl)(Cl)C1=O
inactive: dose: 12.5 mg/kg/injection, schedule: Q01DX005 (ip), vehicle: Klucel (hydroxypropylcellulose) (HPC) 101 % of control | dose: 25.0 mg/kg/injection, schedule: Q01DX005 (ip), vehicle: Klucel (hydroxypropylcellulose) (HPC) 97 % of control

COc1nc(N)nc2c1ncn2C1CC(O)C(CO)O1 (configuration not stated)
inactive: dose: 50.0 mg/kg/injection, schedule: Q01DX005 (ip), vehicle: Klucel (hydroxypropylcellulose) (HPC) 100 % of control | dose: 100.0 mg/kg/injection, schedule: Q01DX005 (ip), vehicle: Klucel (hydroxypropylcellulose) (HPC) 100 % of control | dose: 200.0 mg/kg/injection, schedule: Q01DX005 (ip), vehicle: Klucel (hydroxypropylcellulose) (HPC) 112 % of control

Cc1cccnc1-n1c(N)cc(=O)[nH]c1=S
inactive: dose: 50.0 mg/kg/injection, schedule: Q01DX001 (ip), vehicle: saline with Tween-80 100 % of control | dose: 100.0 mg/kg/injection, schedule: Q01DX001 (ip), vehicle: saline with Tween-80 100 % of control | dose: 200.0 mg/kg/injection, schedule: Q01DX001 (ip), vehicle: saline with Tween-80 86 % of control

Cc1ccc(-c2nc3c(C)nc(-c4ccccc4)nc3n2Nc2ccccc2)cc1
inactive: dose: 50.0 mg/kg/injection, schedule: Q01DX005 (ip), vehicle: saline with Tween-80 94 % of control | dose: 100.0 mg/kg/injection, schedule: Q01DX005 (ip), vehicle: saline with Tween-80 90 % of control | dose: 200.0 mg/kg/injection, schedule: Q01DX005 (ip), vehicle: saline with Tween-80 91 % of control

CNC(=S)/N=c1/sc([N+](=O)[O-])c(C)n1C
inactive: dose: 1.87 mg/kg/injection, schedule: Q01DX005 (ip), vehicle: saline with Tween-80 94 % of control | dose: 3.75 mg/kg/injection, schedule: Q01DX005 (ip), vehicle: saline with Tween-80 92 % of control | dose: 7.5 mg/kg/injection, schedule: Q01DX005 (ip), vehicle: saline with Tween-80 99 % of control and 97 % of control | dose: 15.0 mg/kg/injection, schedule: Q01DX005 (ip), vehicle: saline with Tween-80 95 % of control

Br[C](Br)(Br)[Hg][c]1ccccc1
inactive: dose: 3.13 mg/kg/injection, schedule: Q01DX009 (ip), vehicle: saline with Tween-80 106 % of control | dose: 6.25 mg/kg/injection, schedule: Q01DX009 (ip), vehicle: saline with Tween-80 100 % of control | dose: 12.5 mg/kg/injection, schedule: Q01DX009 (ip), vehicle: saline with Tween-80 104 % of control
